The results in this text go back to patent publication US20260137678A1, “METHODS FOR TREATING OR PREVENTING NEUROENDOCRINE TUMOR FORMATION USING XPO1 INHIBITORS” (priority 2022, published 2026).

Assay [1] concerns control and TP53/RB1-inactivated 22PC (PRAD) cells. The assay can be described thus: Monotherapy cytotoxicity assay (CellTiter-Glo viability). It is filed as cell-based. The settings on record: 5 nM selinexor; TP53/RB1 inactivation relative to wild-type controls or single gene loss-of-function counterparts. An excerpt: (§1) FIGS. 2A-2E. Loss of TP53/RB1 function induces exportin 1 expression and sensitivity to selinexor. FIG. 2A: XPO1 mRNA expression in LUAD clinical specimens, categorized by their TP53/RB1 status. Data obtained from LUAD TCGA (PanCancer, n=237 wild type (wt), 33 mutated), LUAD OncoSG (OncoSG, Nat Genetics 2020, n=109 wt, 6 mutated) and PRAD TCGA (PanCancer, n=367 wt, 6 mutated)^14,15. FIG. 2B: Western blot showing exportin 1 protein abundance in isogenic H1563 (LUAD) and 22PC (PRAD) cell lines with or without induced loss of function of TP53 and/or RB1 and western blot quantification (n=2) (see methods). FIG. 2C: Barplot showing a representative biological replicate of an experiment assessing viability of control and TP53/RB1-loss (DKO) H1563, 22PC and LnCap (PRAD) cells treated with 5 nM selinexor. […] For FIGS. 2B-2C, p-values were calculated using the Student's t-test (unpaired, heterogeneous variances, two-tailed). p-value legend: *<0.05, **<0.01, ***<0.001. […]
(§2) Cytotoxic assays were performed as described in^22 with a total of 1,500 cells/well seeded in 96-well plates and treated with the drugs/doses described for 96 hours. Viability was assessed with the CellTiter-Glo 2.0 Assay (Promega, G9242) as indicated by manufacturer, and normalized to the untreated control wells.

The subject of assay [2] is control and TP53/RB1-inactivated H1563 (LUAD) cells. The description is as above. It is filed as cell-based. Particulars: 5 nM selinexor; TP53/RB1 inactivation relative to wild-type controls or single gene loss-of-function counterparts.
Description: as §1, §2

Consider `O=C(/C=C\n1cnc(-c2cc(C(F)(F)F)cc(C(F)(F)F)c2)n1)NNc1cnccn1` [selinexor], for which the “selinexor sensitivity (viability)” value in assay [1] and in assay [2] was “increased selinexor sensitivity” in each case.
